Test results taken from patent US4382090A, “N-Thiazolylmethylthioalkyl-N'alkylamidines and related compounds” (Eli Lilly and Company, priority 1981, dated 1983).

Columns and labels:
H2 -receptor [1] = conditions: cited from earlier work
H2 -receptors = target: T1, H2 -receptors (Rattus norvegicus, UniProt P25102); experiment: H2-receptor blocking activity, isolated rat uterine horn (histamine relaxation of KCl-contracted uterus); conditions: for Kb: rat uterus, Schild plot, read-out: KB (dissociation constant of the antagonist)
T1 construct: from tissue; host or cells: uterine horn of estrone-treated female albino rats
Method: The following assay for H2 -receptor blocking activity was employed. Female albino rats were treated with estrone 24 hours prior to the initiation of the experiment. The rats were sacrificed and the uterine horns removed therefrom and suspended at ambient temperatures in isolated organ baths containing De Jalon's solution. After equilibration, the uterine strips are exposed to 50 millimole aqueous potassium chloride, which produces a sustained contraction. When the uterus is so contracted, histamine produces a dose-dependent H2 -receptor-mediated relaxation. A control dose-response curve to histamine is constructed on each tissue. Following thorough washout of the histamine after obtaining the control dose-response curve, each antagonist (the compounds of this invention) is added for 30 minutes at a concentration of 10^-5 molar. The uterine strips are then contracted with aqueous potassium chloride in the presence of the antagonist and a second dose-response curve to histamine obtained. In the presence of a competitive antagonist, the dose-response curve to histamine is shifted in parallel to the right with no depression of the maximum relative to the control curve. The dose ratio (DR) is calculated for each concentration of antagonist by dividing the ED50 of histamine in the presence of the competitive antagonist by the control ED50 for histamine. The dissociation constant (KB) of the antagonist is calculated from the dose-ratios by the following equation: […]

H2 -receptor [2] = conditions: cited from earlier work; remark: listed apart in the source
[3] = Preliminary tests of duration of action
[4] = cited from earlier work
[5] = cited from earlier work; remark: listed apart in the source

T1 sequence (P25102 whole entry): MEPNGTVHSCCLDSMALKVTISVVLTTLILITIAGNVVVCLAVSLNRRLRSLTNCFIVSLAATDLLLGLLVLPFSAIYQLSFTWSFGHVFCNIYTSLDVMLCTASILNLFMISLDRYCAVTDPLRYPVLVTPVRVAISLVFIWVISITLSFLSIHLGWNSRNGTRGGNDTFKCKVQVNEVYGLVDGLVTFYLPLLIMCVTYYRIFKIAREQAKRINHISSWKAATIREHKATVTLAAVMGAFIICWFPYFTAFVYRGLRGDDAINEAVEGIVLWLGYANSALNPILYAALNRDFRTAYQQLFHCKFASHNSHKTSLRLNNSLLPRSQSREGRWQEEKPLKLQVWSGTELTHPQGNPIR

Compound: CNC(=NC#N)NCCSCc1csc(NC(=N)N)n1 [2-guanidino-4-[2-(2-cyano-3-methylguanidino)ethylthiomethyl]thiazole]
- activity compared with cimetidine (H2 -receptor [1]): greatly increased activity over cimetidine

Compound: CNC(=NC#N)NCCSCc1csc(CN(C)C)n1 [N-methyl-N'-2-(2-dimethylaminomethyl-4-thiazolylmethylthio)ethyl-N"-cyanoguanidine]
- affinity for the H2 -receptors relative to cimetidine (H2 -receptors; rat uterine strips, antagonist 10^-5 molar for 30 minutes): about 1.5 times

Compound: C#CCNC(=C[N+](=O)[O-])NCCSCc1ccc(CN(C)C)o1 [1-nitro-2-(2-propynylamino)-2-(2-[(5-dimethylaminomethyl-2-furyl)methylthio]ethylamino)ethylene]
- activity relative to cimetidine in a standard H2 -receptor assay (H2 -receptor [2]): 7.45 times

Compound: CNC(=C[N+](=O)[O-])NCCSCc1csc(CN(C)C)n1 [N-methyl-N'-2-(2-dimethylaminomethyl-4-thiazolylmethylthio)ethyl 2-nitro-1,1-ethenediamine]
- duration of action compared with cimetidine [3]: longer duration of action
- Kb (H2 -receptors): 87 nM

Compound: CN/C(=N/CCSCc1nc[nH]c1C)NC#N [cimetidine, N-cyano-N'-methyl-N"-[2-([(5-methyl-1H-imidazol-4-yl)methyl]thio)ethyl]guanidine]
- Literature LD50 rat iv ([4]; iv): 106 mg/kg
- Literature LD50 rat oral ([4]; oral): 5000 mg/kg
- Literature LD50 mouse iv [5]: 150 mg/kg
- Kb (H2 -receptors): 871 nM
